# System: human colon cancer cells (HCT-15)
# Assay: Anticancer effect in nude mice transplanted with human colon cancer cells (tumor volume)
# Type: in vivo, BALB/C nude mice
# Details: G2, 2 mg/kg abdominal, once in 2 days
# Method: The anticancer effect of the inventive composition was tested at the Chemon Preclinical Research Center (approved by the KGLP) using a nude mouse transplanted with human colon cancer cells.
# 7-weeks-old specific pathogen free (SPF) athymic BALB/C nude mice (SLC Japan, Japan) were weighed and grouped to 6 groups, 10 per each group, as follows: negative control group (1), positive control group (1) and test groups (4). The mice were identified by the identification label of the cage and using ear punching.
# The test groups were designed as in Table 1.
# Colon cancer cells (HCT15) were thawed in a constant-temperature water bath of […] as soon as possible. After mixing well with 10 mL of RPMI1640 culture medium (Sigma Aldrich, USA), centrifuge was performed at 1000 rpm for 10 minutes. The resulting cell pellet was mixed well with 5 mL of RPMI1640 culture medium containing 10% fetal bovine serum (FBS), and the cells were cultured in a cell culture flask under the condition of 37° C. and 5% CO2. The cultured cancer cells were suspended in physiological saline to a concentration of 1×10^7 cells/mL and transplanted subcutaneously to the mice, 0.3 mL (3×10^6 cells) each.
# The composition prepared in Example 1 was suspended at various concentrations in sterilized, distilled water for injection (Choongwae Pharma Corporation, Korea) as excipient, ground using a grinding machine (homogenizer), and orally administered to the mice at a dose of 75 mg/kg body weight (G3), 150 mg/kg body weight (G4) or 300 mg/kg body weight (G5), respectively, for 3 weeks, twice a day. Of the test groups, the pre-administration group (G6) had been orally administered with the composition at a dose of 300 mg/kg body weight for 3 weeks, twice a day, before the transplantation of the cancer cells. Following the transplantation of the cancer cells, they were administered in the same way for 3 weeks.
# In the negative control group (G1), the excipient was orally administered for 3 weeks, twice a day, instead of the inventive anticancer composition. […] The doxorubicin solution was prepared by dissolving in the excipient by a method known in the art.
# During the test, the mice were kept under the condition of 23±3° C. and relative humidity of 55±15%, and access to water and feed was allowed freely.
# Tumor volume was measured on days 12, 15, 19 and 22 after the inoculation of the cancer cells. Length, width and height of the tumor were measured using a vernier caliper, and the tumor volume was calculated by the following equation: Tumor volume=(Length×Width×Height)÷2 The tumor volume measurement result is given in Table 2 (unit: mm^3).
structure (smiles),measurement,setting,value
COc1cccc2c1C(=O)c1c(O)c3c(c(O)c1C2=O)C[C@@](O)(C(=O)CO)C[C@@H]3O[C@H]1C[C@H](N)[C@H](O)[C@H](C)O1 [doxorubicin],Tumor volume,Day 12,29.3 ± 16.0 mm^3
same,Tumor volume,Day 15,93.7 ± 65.9 mm^3
same,Tumor volume,Day 19,149.0 ± 77.6 mm^3
same,Tumor volume,Day 22,258.6 ± 160.1 mm^3
same,tumor inhibition effect ([1-(tumor volume of administered group/tumor volume of negative control group)]x100),day 22,59.5%
